Results taken from US4258180A, “C6-Modified cyclodextrin sulfate salts as complement inhibitors” (American Cyanamid Company, priority 1979, dated 1981).
Counter-ions that a name gives are not always drawn.

What was measured:
Assay type in all cases: biochemical
activated human C1 = activated human C1 (Homo sapiens, UniProt P09871); test: Test Code 026 (C1 inhibitor); conditions: serial dilution assay, twofold dilutions; higher well number indicates higher activity
Text: (§1) An active inhibitor protects C2 from C1 and C4; (ii) Test Code 035 (C3-C9 inhibitor)--This test determines the ability of the late components of human complement (C3-C9) to lyse EAC 142 in the presence of appropriate dilutions of the test compound. An active inhibitor protects EAC 142 from lysis by human C3-C9; (iii) Test Code 036 (C-Shunt inhibitor)--In this test human erythrocytes rendered fragile are lysed in autologous serum via the shunt pathway activated by cobra venom factor in the presence of appropriate dilutions of the test compound. Inhibition of the shunt pathway results in failure of lysis; (iv) Forssman Vasculitis Test--Here, the well known complement dependent lesion, Forssman Vasculitis, is produced in guinea pigs by intradermal injection of rabbit anti-Forssman antiserum. The lesion is measured in terms of diameter, edema and hemorrhage and the extent to which a combined index of these is inhibited by prior intraperitoneal injection of the test compound at 200 mg/kg is then reported, unless otherwise stated; (v) Forssman Shock Test--Lethal shock is produced in guinea pigs by an i.v. injection of anti-Forssman antiserum and the harmonic mean death time of treated guinea pigs is compared with that of simultaneous controls; (vi) Complement Level Reduction Test--In this test, the above dosed guinea pigs, or others, are bled for serum and the complement level is determined in undiluted serum by the capillary tube method of U.S. Pat. No. 3,876,376 and compared to undosed control guinea pigs; and (vii) Cap 50 Test--Here, appropriate amounts of the test compound are added to a pool of guinea pig serum in vitro, after which the undiluted serum capillary tube assay referred to above is run. The concentration of compound inhibiting 50% is reported.

[1] = test system: late components of human complement (C3-C9); test: Test Code 035 (C3-C9 inhibitor), lysis of EAC 142; conditions: serial dilution assay, twofold dilutions; higher well number indicates higher activity; N = Negative
Text: as §1

shunt pathway = test: Test Code 036 (C-Shunt inhibitor), lysis of fragile human erythrocytes in autologous serum, cobra venom factor; conditions: serial dilution assay, twofold dilutions; higher well number indicates higher activity; N = Negative
Text: as §1

Structure (SMILES) | 026 Activity in wells (activated human C1) [wells] | 035 Activity in wells [1] | 036 Activity in wells (shunt pathway)
O=S(=O)(O)O[C@@H]1[C@@H](OS(=O)(=O)O)[C@H]2O[C@H]3[C@H](OS(=O)(=O)O)[C@@H](OS(=O)(=O)O)[C@@H](O[C@H]4[C@H](OS(=O)(=O)O)[C@@H](OS(=O)(=O)O)[C@@H](O[C@H]5[C@H](OS(=O)(=O)O)[C@@H](OS(=O)(=O)O)[C@@H](O[C@H]6[C@H](OS(=O)(=O)O)[C@@H](OS(=O)(=O)O)[C@@H](O[C@H]7[C@H](OS(=O)(=O)O)[C@@H](OS(=O)(=O)O)[C@@H](O[C@H]8[C@H](OS(=O)(=O)O)[C@@H](OS(=O)(=O)O)[C@@H](O[C@@H]1[C@@H](CBr)O2)O[C@@H]8CBr)O[C@@H]7CBr)O[C@@H]6CBr)O[C@@H]5CBr)O[C@@H]4CBr)O[C@@H]3CBr [β-Cyclo[6-bromo-6-dexoy]dextrin poly(H-sulfate)poly-trimethy] [6,6',6",6'",6"",6'""-Heptabromo-6,6',6",6'",6"",6'"",6"""-heptadeoxy-β-cyclodextrin tetradecakis(H-sulfate), tatradecasalt with trimethylamine] | 6 | 3 wells | 4 wells
O=S(=O)(O)O[C@@H]1[C@@H](OS(=O)(=O)O)[C@H]2O[C@H]3[C@H](OS(=O)(=O)O)[C@@H](OS(=O)(=O)O)[C@@H](O[C@H]4[C@H](OS(=O)(=O)O)[C@@H](OS(=O)(=O)O)[C@@H](O[C@H]5[C@H](OS(=O)(=O)O)[C@@H](OS(=O)(=O)O)[C@@H](O[C@H]6[C@H](OS(=O)(=O)O)[C@@H](OS(=O)(=O)O)[C@@H](O[C@H]7[C@H](OS(=O)(=O)O)[C@@H](OS(=O)(=O)O)[C@@H](O[C@@H]1[C@@H](CBr)O2)O[C@@H]7CBr)O[C@@H]6CBr)O[C@@H]5CBr)O[C@@H]4CBr)O[C@@H]3CBr [α-Cyclo[6-bromo-6-deoxy]dextrin poly (H-sulfate)poly-sodium ] [6,6',6",6'",6"",6'""-Hexabromo-6,6',6",6'",6"",6'""-hexadeoxy-α-cyclodextrin dodecakis(H-sulfate), dodecasodium salt] | 6 | 5 wells | 4 wells
[N-]=[N+]=NC[C@H]1O[C@@H]2O[C@H]3[C@H](OS(=O)(=O)O)[C@@H](OS(=O)(=O)O)[C@@H](O[C@H]4[C@H](OS(=O)(=O)O)[C@@H](OS(=O)(=O)O)[C@@H](O[C@H]5[C@H](OS(=O)(=O)O)[C@@H](OS(=O)(=O)O)[C@@H](O[C@H]6[C@H](OS(=O)(=O)O)[C@@H](OS(=O)(=O)O)[C@@H](O[C@H]7[C@H](OS(=O)(=O)O)[C@@H](OS(=O)(=O)O)[C@@H](O[C@H]1[C@H](OS(=O)(=O)O)[C@H]2OS(=O)(=O)O)O[C@@H]7CN=[N+]=[N-])O[C@@H]6CN=[N+]=[N-])O[C@@H]5CN=[N+]=[N-])O[C@@H]4CN=[N+]=[N-])O[C@@H]3CN=[N+]=[N-] [α-Cyclo[6-azido-6-deoxy]dextrin poly(H-sulfate)poly-sodium s] [6,6',6",6'",6"",6'""-Hexaazido-6,6',6",6'",6"",6'""-hexadeoxy-α-cyclodextrin, dodecakis(H-sulfate), dodecasodium salt] | 7 | 1 wells | 4 wells
N#CSC[C@H]1O[C@@H]2O[C@H]3[C@H](OS(=O)(=O)O)[C@@H](OS(=O)(=O)O)[C@@H](O[C@H]4[C@H](OS(=O)(=O)O)[C@@H](OS(=O)(=O)O)[C@@H](O[C@H]5[C@H](OS(=O)(=O)O)[C@@H](OS(=O)(=O)O)[C@@H](O[C@H]6[C@H](OS(=O)(=O)O)[C@@H](OS(=O)(=O)O)[C@@H](O[C@H]7[C@H](OS(=O)(=O)O)[C@@H](OS(=O)(=O)O)[C@@H](O[C@H]1[C@H](OS(=O)(=O)O)[C@H]2OS(=O)(=O)O)O[C@@H]7CSC#N)O[C@@H]6CSC#N)O[C@@H]5CSC#N)O[C@@H]4CSC#N)O[C@@H]3CSC#N [α-Cyclo[6-deoxy-6-thiocyanato]dextrin poly(H-sulfate)poly-tr] [6,6',6",6'",6"",6'""-Hexadeoxy-6,6',6",6'",6"",6'""-hexathiocyanato-α-cyclodextrin, dodecakis(H-sulfate), dodecasalt with trimethylamine] | 1 | N | N
[N-]=[N+]=NC[C@H]1O[C@@H]2O[C@H]3[C@H](OS(=O)(=O)O)[C@@H](OS(=O)(=O)O)[C@@H](O[C@H]4[C@H](OS(=O)(=O)O)[C@@H](OS(=O)(=O)O)[C@@H](O[C@H]5[C@H](OS(=O)(=O)O)[C@@H](OS(=O)(=O)O)[C@@H](O[C@H]6[C@H](OS(=O)(=O)O)[C@@H](OS(=O)(=O)O)[C@@H](O[C@H]7[C@H](OS(=O)(=O)O)[C@@H](OS(=O)(=O)O)[C@@H](O[C@H]8[C@H](OS(=O)(=O)O)[C@@H](OS(=O)(=O)O)[C@@H](O[C@H]1[C@H](OS(=O)(=O)O)[C@H]2OS(=O)(=O)O)O[C@@H]8CN=[N+]=[N-])O[C@@H]7CN=[N+]=[N-])O[C@@H]6CN=[N+]=[N-])O[C@@H]5CN=[N+]=[N-])O[C@@H]4CN=[N+]=[N-])O[C@@H]3CN=[N+]=[N-] [β-Cyclo[6-azido-6-deoxy]dextrin poly(H-sulfate)poly-sodium s] [6,6',6",6'",6"",6'"",6"""-Heptaazido-6,6',6",6'",6"",6'"",6"""-heptadeoxy-β-cyclodextrin, tetradecakis(H-sulfate), tetradecasoium salt] | 6 | 2 wells | 4 wells
N#CSC[C@H]1O[C@@H]2O[C@H]3[C@H](OS(=O)(=O)O)[C@@H](OS(=O)(=O)O)[C@@H](O[C@H]4[C@H](OS(=O)(=O)O)[C@@H](OS(=O)(=O)O)[C@@H](O[C@H]5[C@H](OS(=O)(=O)O)[C@@H](OS(=O)(=O)O)[C@@H](O[C@H]6[C@H](OS(=O)(=O)O)[C@@H](OS(=O)(=O)O)[C@@H](O[C@H]7[C@H](OS(=O)(=O)O)[C@@H](OS(=O)(=O)O)[C@@H](O[C@H]8[C@H](OS(=O)(=O)O)[C@@H](OS(=O)(=O)O)[C@@H](O[C@H]1[C@H](OS(=O)(=O)O)[C@H]2OS(=O)(=O)O)O[C@@H]8CSC#N)O[C@@H]7CSC#N)O[C@@H]6CSC#N)O[C@@H]5CSC#N)O[C@@H]4CSC#N)O[C@@H]3CSC#N [β-Cyclo[6-deoxy-6-thiocyanato]dextrin poly(H-sulfate)poly-tr] [6,6',6",6'",6"",6'"",6"""-Heptadeoxy-6,6',6",6'",6"",6'"",6""-heptathiocyanato-β-cyclodextrin, tetradecakis(H-sulfte), tetradecasalt with trimethylamine] | 4 | N | 1 wells
N#CSC[C@H]1O[C@@H]2O[C@H]3[C@H](OS(=O)(=O)O)[C@@H](OS(=O)(=O)O)[C@@H](O[C@H]4[C@H](OS(=O)(=O)O)[C@@H](OS(=O)(=O)O)[C@@H](O[C@H]5[C@H](OS(=O)(=O)O)[C@@H](OS(=O)(=O)O)[C@@H](O[C@H]6[C@H](OS(=O)(=O)O)[C@@H](OS(=O)(=O)O)[C@@H](O[C@H]7[C@H](OS(=O)(=O)O)[C@@H](OS(=O)(=O)O)[C@@H](O[C@H]1[C@H](OS(=O)(=O)O)[C@H]2OS(=O)(=O)O)O[C@@H]7CSC#N)O[C@@H]6CSC#N)O[C@@H]5CSC#N)O[C@@H]4CSC#N)O[C@@H]3CSC#N [α-Cyclo[6-deoxy-6-thiocyanato]dextrin poly(H-sulfate)poly-so] [6,6',6",6'",6"",6'""-Hexadeoxy-6,6',6",6'",6"",6'""-hexathiocyanato-α-cyclodextrin, dodecakis(H-sulfate), dodecasodium salt] | 7 | 2 wells | 4 wells
N#CSC[C@H]1O[C@@H]2O[C@H]3[C@H](OS(=O)(=O)O)[C@@H](OS(=O)(=O)O)[C@@H](O[C@H]4[C@H](OS(=O)(=O)O)[C@@H](OS(=O)(=O)O)[C@@H](O[C@H]5[C@H](OS(=O)(=O)O)[C@@H](OS(=O)(=O)O)[C@@H](O[C@H]6[C@H](OS(=O)(=O)O)[C@@H](OS(=O)(=O)O)[C@@H](O[C@H]7[C@H](OS(=O)(=O)O)[C@@H](OS(=O)(=O)O)[C@@H](O[C@H]8[C@H](OS(=O)(=O)O)[C@@H](OS(=O)(=O)O)[C@@H](O[C@H]1[C@H](OS(=O)(=O)O)[C@H]2OS(=O)(=O)O)O[C@@H]8CSC#N)O[C@@H]7CSC#N)O[C@@H]6CSC#N)O[C@@H]5CSC#N)O[C@@H]4CSC#N)O[C@@H]3CSC#N [β-Cyclo[6-deoxy-6-thiocyanato]dextrin poly(H-sulfate)poly-so] [6,6',6",6'",6"",6'"",6"""-Heptadeoxy-6,6',6",6'",6"",6'"",6"""-heptathiocyanato-β-cyclodextrin, tetradecakis(H-sulfate), tetradecasodium salt] | 7 | 2 wells | 4 wells
